Experimental data: PubChem BioAssay AID1963844 (Molecular Pharmacology Branch, DTP, NCI, 2024)

Test system: 422866-222-R5-J1-PDC complex spheroid viability
Test: Anticancer human tumor 422866-222-R5-J1-PDC patient-derived pancreatic adenocarcinoma cell line growth inhibition [POLQ]
Settings: for IC50: curve of first compound; for viability, T/C: stronger effect = lower value
Method: Multicellular complex tumor spheroid response to Polymerase (POL) inhibitors (novobiocin, ART-558, RP6685) in combination with a variety of drugs and investigational agents in selected tumor cell lines
The POL inhibitors (novobiocin, ART-558, and RP6685) were evaluated both individually and in combination with standard of care and investigational anticancer small molecules within a complex spheroid model of solid tumors. . Complex spheroids include a stromal component modeled by human endothelial cells (HUVEC) and fibroblasts modeled by human mesenchymal stem cells (MSCs). The concentration ranges selected for each drug and investigational agent were based upon clinically achievable concentrations if the clinical Cmax of the agent was known.
Compounds. The drugs and investigational agents: novobiocin (NSC847541), ART-558 (NSC835418), RP-6685 (NSC848927), peposertib (NSC802822), ceralasertib (NSC780249), elimusertib (NSC800525), camonsertib (NSC841442), AZD-1390 (NSC803789), olaparib (NSC753686), talazoparib (NSC767125), rucaparib (NSC756644), sotorasib (NSC818433), MRTX-1133 (NSC836407), SN-38 (NSC673596), topotecan (NSC609699), epotoside (NSC141540), doxorubicin (NSC123127), gemcitabine (NSC613327), 5-fluorouracil (NSC19893), paclitaxel (NSC125973), vemurafenib (NSC761431), MSA-2 (NSC828583), SN-011 (NSC837082), adavosertib (NSC754352), prexasertib (NSC758257), carboplatin (NSC241240) and oxaliplatin (NSC266046), were obtained from the National Cancer Institute (NCI) Developmental Therapeutics Program Chemical Repository (21). The FDA-approved anticancer drug set is available from the Developmental Therapeutics Program at https://dtp.cancer.gov/organization/dscb/obtaining/. […] The stock solutions were prepared in dimethyl sulfoxide (DMSO, Sigma-Aldrich, St. Louis, MO, cat. D2650), except for the platinum compounds which were prepared in saline (Quality Biological, Gaithersburg, MD, cat. 114-055-101), at 800-fold the tested concentration and stored at -70 degrees C prior to their use. All drugs and investigational agents were tested over a range starting from a high concentration at or near the clinical Cmax and decreasing in half-log increments. If the clinical Cmax for an agent had not been determined, the highest concentration tested was 10 microM, except for SN-38, which was tested at a high concentration of 1 microM.
Cell Culture. All cells were maintained in an incubator at 37 degrees C and 5% CO2 with 95% humidity. The PDC lines were cultured according to standard operating procedures established by the NCI PDMR (https://pdmr.cancer.gov). Table 3 of the manuscript, lists the cell lines along with the number of the three cell types plated to form the mct-spheroids and media for tumor cell growth. After thawing, all PDC lines, except 997537-175-T-J1-PDC and 415267-285-R-J2-PDC, were cultured in Matrigel-coated flasks prepared with a working solution of 1X Ham's F-12 nutrient mix, without supplementation (Thermo Fisher Scientific, cat. 11765054), 100 U/mL penicillin-streptomycin (Thermo Fisher Scientific, cat. 15140122), and 2.5% Matrigel (Corning Inc., Corning, NY, cat. 354248) for the first three passages. The two PDC lines 997537-175-T-J1-PDC and 415267-285-R-J2-PDC were cultured on uncoated flasks. The 857933-349-R-J2-PDC line was cultured in 6C/Colon 1B media containing advanced DMEM/F-12 (Thermo Fisher Scientific, cat. 12634028), 10 mM HEPES (Thermo Fisher Scientific, cat. 15630080), 1X GlutaMAX supplement (Thermo Fisher Scientific, cat. 35050061), 0.1 mg/mL primocin (InvivoGen, San Diego, CA, cat. ant-pm-2), 10% defined fetal bovine serum, heat inactivated (HyClone Laboratories Inc., Logan, UT, cat. SH30070.03HI), 50% L-WRN conditioned media (ATCC, cat. CRL-3276), 1.25 mM N-Acetyl-L-cysteine (Sigma-Aldrich, cat. A9165), 10 mM nicotinamide (Sigma-Aldrich, cat. N0636), 1X B-27 supplement (Thermo Fisher Scientific, cat. 17504044), 1X N-2 supplement (Thermo Fisher Scientific, cat. […]

[1] = second compound 0.0316 µM, first compound 0.0316 µM
[2] = second compound 0.0316 µM, first compound 0.1 µM
[3] = second compound 0.1 µM, first compound 0.0316 µM
[4] = second compound 0.1 µM, first compound 0.1 µM
[5] = second compound 0.316 µM, first compound 0.0316 µM
[6] = second compound 0.316 µM, first compound 0.1 µM
[7] = second compound 1 µM, first compound 0.0316 µM
[8] = second compound 1 µM, first compound 0.1 µM
[9] = second compound 3.16 µM, first compound 0.0316 µM
[10] = second compound 3.16 µM, first compound 0.1 µM
[11] = second compound 10 µM, first compound 0.0316 µM
[12] = second compound 10 µM, first compound 0.1 µM
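Note: spheroids exposed to compounds for one week before readout.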
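Throughout, for viability, T/C: percent of DMSO vehicle wells luminescence so 100% = untreated viability.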

SMILES: CNCc1ccc(-c2[nH]c3cc(F)cc4c3c2CCNC4=O)cc1 + Nc1ccc(C#CCN(C(=O)Cc2ncc(C(F)(F)F)cc2C(F)(F)F)c2ccc(F)cc2)nn1
- IC50 (second compound 0.0316 µM): > 10 µM
- IC50 (second compound 0.1 µM): > 10 µM
- IC50 (second compound 0.316 µM): > 10 µM
- IC50 (second compound 1 µM): > 10 µM
- IC50 (second compound 3.16 µM): > 10 µM
- IC50 (second compound 10 µM): > 10 µM
- viability, T/C [1]: 78.7%
- viability, T/C [2]: 93.6%
- viability, T/C (second compound 0.0316 µM, first compound 0.316 µM): 77.7%
- viability, T/C (second compound 0.0316 µM, first compound 1 µM): 104%
- viability, T/C (second compound 0.0316 µM, first compound 3.16 µM): 78.8%
- viability, T/C (second compound 0.0316 µM, first compound 10 µM): 76.6%
- viability, T/C [3]: 106%
- viability, T/C [4]: 87.5%
- viability, T/C (second compound 0.1 µM, first compound 0.316 µM): 92.4%
- viability, T/C (second compound 0.1 µM, first compound 1 µM): 107%
- viability, T/C (second compound 0.1 µM, first compound 3.16 µM): 80.6%
- viability, T/C (second compound 0.1 µM, first compound 10 µM): 82.8%
- viability, T/C [5]: 87.4%
- viability, T/C [6]: 109%
- viability, T/C (second compound 0.316 µM, first compound 0.316 µM): 97.1%
- viability, T/C (second compound 0.316 µM, first compound 1 µM): 101%
- viability, T/C (second compound 0.316 µM, first compound 3.16 µM): 72.1%
- viability, T/C (second compound 0.316 µM, first compound 10 µM): 79.5%
- viability, T/C [7]: 89.4%
- viability, T/C [8]: 89.9%
- viability, T/C (second compound 1 µM, first compound 0.316 µM): 93%
- viability, T/C (second compound 1 µM, first compound 1 µM): 91.9%
- viability, T/C (second compound 1 µM, first compound 3.16 µM): 73.5%
- viability, T/C (second compound 1 µM, first compound 10 µM): 63%
- viability, T/C [9]: 100%
- viability, T/C [10]: 96.4%
- viability, T/C (second compound 3.16 µM, first compound 0.316 µM): 105%
- viability, T/C (second compound 3.16 µM, first compound 1 µM): 89.7%
- viability, T/C (second compound 3.16 µM, first compound 3.16 µM): 87.4%
- viability, T/C (second compound 3.16 µM, first compound 10 µM): 81.9%
- viability, T/C [11]: 96.1%
- viability, T/C [12]: 109%
- viability, T/C (second compound 10 µM, first compound 0.316 µM): 89.8%
- viability, T/C (second compound 10 µM, first compound 1 µM): 64.7%
- viability, T/C (second compound 10 µM, first compound 3.16 µM): 79%
- viability, T/C (second compound 10 µM, first compound 10 µM): 69%

SMILES: Cn1ncnc1[C@H]1c2n[nH]c(=O)c3cc(F)cc(c23)N[C@@H]1c1ccc(F)cc1 + Nc1ccc(C#CCN(C(=O)Cc2ncc(C(F)(F)F)cc2C(F)(F)F)c2ccc(F)cc2)nn1
- IC50 (second compound 0.0316 µM): > 0.1 µM
- IC50 (second compound 0.1 µM): > 0.1 µM
- IC50 (second compound 0.316 µM): > 0.1 µM
- IC50 (second compound 1 µM): > 0.1 µM
- IC50 (second compound 3.16 µM): > 0.1 µM
- IC50 (second compound 10 µM): > 0.1 µM
- viability, T/C (second compound 0.0316 µM, first compound 0.000316 µM): 91.5%
- viability, T/C (second compound 0.0316 µM, first compound 0.001 µM): 115%
- viability, T/C (second compound 0.0316 µM, first compound 0.00316 µM): 80.7%
- viability, T/C (second compound 0.0316 µM, first compound 0.01 µM): 104%
- viability, T/C [1]: 88.3%
- viability, T/C [2]: 75.7%
- viability, T/C (second compound 0.1 µM, first compound 0.000316 µM): 101%
- viability, T/C (second compound 0.1 µM, first compound 0.001 µM): 106%
- viability, T/C (second compound 0.1 µM, first compound 0.00316 µM): 110%
- viability, T/C (second compound 0.1 µM, first compound 0.01 µM): 85.2%
- viability, T/C [3]: 81.7%
- viability, T/C [4]: 74.1%
- viability, T/C (second compound 0.316 µM, first compound 0.000316 µM): 112%
- viability, T/C (second compound 0.316 µM, first compound 0.001 µM): 108%
- viability, T/C (second compound 0.316 µM, first compound 0.00316 µM): 86.1%
- viability, T/C (second compound 0.316 µM, first compound 0.01 µM): 91.6%
- viability, T/C [5]: 92.7%
- viability, T/C [6]: 75.2%
- viability, T/C (second compound 1 µM, first compound 0.000316 µM): 109%
- viability, T/C (second compound 1 µM, first compound 0.001 µM): 93.6%
- viability, T/C (second compound 1 µM, first compound 0.00316 µM): 98.8%
- viability, T/C (second compound 1 µM, first compound 0.01 µM): 98.8%
- viability, T/C [7]: 77%
- viability, T/C [8]: 87.9%
- viability, T/C (second compound 3.16 µM, first compound 0.000316 µM): 115%
- viability, T/C (second compound 3.16 µM, first compound 0.001 µM): 111%
- viability, T/C (second compound 3.16 µM, first compound 0.00316 µM): 98.1%
- viability, T/C (second compound 3.16 µM, first compound 0.01 µM): 94.9%
- viability, T/C [9]: 89.1%
- viability, T/C [10]: 92.4%
- viability, T/C (second compound 10 µM, first compound 0.000316 µM): 101%
- viability, T/C (second compound 10 µM, first compound 0.001 µM): 111%
- viability, T/C (second compound 10 µM, first compound 0.00316 µM): 108%
- viability, T/C (second compound 10 µM, first compound 0.01 µM): 95.7%
- viability, T/C [11]: 86.1%
- viability, T/C [12]: 77.9%
